The values that follow come from patent US20240067632A1, “WEE1 Degrading Compounds and Uses Thereof” (Bristol-Myers Squibb Company, priority 2022, published 2024).

One test relates to MKN45 cells. Briefly: MKN45 cell proliferation assay (Cell-Titer-Glo, 120 h). Type of test: cell-based. As to conditions: for EC50: Homo sapiens, MKN-45, 120 h, Cell-Titer-Glo, growth inhibition, read-out: MKN45 Cell Prolif. 120 hr (EC50); for MKN45 Cell Prolif. 120 hr (Ymin-Obs): minimal percent of DMSO control observed in the concentrations tested. The method in brief: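 Growth inhibition was read as blank-corrected Cell-Titer-Glo luminescence expressed as percent DMSO control after 120 h at 37 C, 400 cells/well. Compounds tested in triplicate as 10-point half-log series from 1 or 10 uM, 0.1% DMSO; four-parameter fit gave EC50, and lowest observed percent control was reported as Ymin-obs.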

The target in the next test is T1, WEE1 (Homo sapiens, UniProt P30291+Q96SW2).
T1 construct: C-terminal ePL-tagged (DiscoverX, Fremont, CA) full-length WEE1 expression construct; expressed in transfected cells; host or cells: LentiX-HEK293T (Invitrogen), lentiviral transduction; co-expressing GSPT1-GN (G576N, lacking the first 158 amino acids)
Nature of the test: WEE1-ePL degradation assay (LentiX-WEE1-ePL-GSPT1-ND cells, InCELL Hunter luminescence, 4 h). Type of test: cell-based. As to conditions: 293T-LentiX WEE1-ePL cells; for 293T-LentiX WEE1-ePL Degradation 4 hr (Ymin): lower limit of the fit (0 = luciferase inhibitor, Ymax = DMSO control); for DC50: read-out: 293T-LentiX WEE1-ePL Degradation 4 hr (EC50). In short, it runs like this:
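Degradation EC50 was fitted by a four-parameter logistic model, with the upper limit taken from DMSO wells. Luminescence was read with InCELL Hunter reagent after 30 min at room temperature, following a 4 h, 37° C exposure of 2500 cells/well. Cells were LentiX-HEK293T carrying ePL-tagged full-length WEE1, dosed in 10 points (3-fold) from 1 or 10 uM.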

As usually defined, the EC50 is the concentration needed to bring the measured effect to its halfway point. Take `O=C1CCC(N2Cc3cc(O[C@H]4CCN(Cc5ccc6nc(N7CC[C@]78CCOC8)ccc6c5)C4)ccc3C2=O)C(=O)N1` (stereo partly drawn) [3-(5-{[(3S)-1-({2-[(4R)-6-oxa-1-azaspiro[3.4]octan-1-yl]quinolin-6-yl}methyl)pyrrolidin-3-yl]oxy}-1-oxo-2,3-dihydro-1H-isoindol-2-yl)piperidine-2,6-dione]: in the test with MKN45 cells, the EC50 amounted to 5.4 nM and the “MKN45 Cell Prolif. 120 hr (Ymin-Obs)” value was determined as 7.715. Moreover, at WEE1, the “293T-LentiX WEE1-ePL Degradation 4 hr (Ymin)” value turned out to be 42 and the DC50 came to 5.38 nM.

As for `CC1(C)C[C@@H](c2ncc3cc(CN4CC[C@H](Oc5ccc6c(c5)CN(C5CCC(=O)NC5=O)C6=O)C4)ccc3n2)CCO1` (stereo partly drawn) [3-(5-{[(3S)-1-({2-[(4S)-2,2-dimethyloxan-4-yl]quinazolin-6-yl}methyl)pyrrolidin-3-yl]oxy}-1-oxo-2,3-dihydro-1H-isoindol-2-yl)piperidine-2,6-dione], in the test on MKN45 cells, the EC50 is 9.52 nM and the “MKN45 Cell Prolif. 120 hr (Ymin-Obs)” value is on record as 8.354. Also, on WEE1, the “293T-LentiX WEE1-ePL Degradation 4 hr (Ymin)” value was determined as 31 and the DC50 turned out to be 43.4 nM.

Regarding `CC1(C)COCC[C@@H]1c1ccc2cc(CN3CC[C@H](Oc4ccc5c(c4)CN(C4CCC(=O)NC4=O)C5=O)C3)ccc2n1` (stereo partly drawn) [3-(5-{[(3S)-1-({2-[(4S)-3,3-dimethyloxan-4-yl]quinolin-6-yl}methyl)pyrrolidin-3-yl]oxy}-1-oxo-2,3-dihydro-1H-isoindol-2-yl)piperidine-2,6-dione], in the test on MKN45 cells, the EC50 came to 1.7 nM and the “MKN45 Cell Prolif. 120 hr (Ymin-Obs)” value came to 6.945. In addition, on WEE1, the “293T-LentiX WEE1-ePL Degradation 4 hr (Ymin)” value is recorded as 34 and the DC50 is 1.78 nM.

Turning to `O=C1CCC(N2Cc3cc(O[C@H]4CCN(Cc5ccc6nc(N7CC[C@@]78CCOC8)ncc6c5)C4)ccc3C2=O)C(=O)N1` (stereo partly drawn) [3-(5-{[(3S)-1-({2-[(4S)-6-oxa-1-azaspiro[3.4]octan-1-yl]quinazolin-6-yl}methyl)pyrrolidin-3-yl]oxy}-1-oxo-2,3-dihydro-1H-isoindol-2-yl)piperidine-2,6-dione], in the test with MKN45 cells, the EC50 amounted to 13.3 nM and the “MKN45 Cell Prolif. 120 hr (Ymin-Obs)” value is reported as 12.16. Moreover, on WEE1, the “293T-LentiX WEE1-ePL Degradation 4 hr (Ymin)” value was 34.39 and the DC50 was determined as 14.6 nM.

On to `O=C1CCC(N2Cc3cc(O[C@H]4CCN(Cc5ccc6nc(N7CC[C@@]78CCOC8)ccc6c5)C4)ccc3C2=O)C(=O)N1` (stereo partly drawn) [3-(5-{[(3S)-1-({2-[(4S)-6-oxa-1-azaspiro[3.4]octan-1-yl]quinolin-6-yl}methyl)pyrrolidin-3-yl]oxy}-1-oxo-2,3-dihydro-1H-isoindol-2-yl)piperidine-2,6-dione], for which, in the test with MKN45 cells, the EC50 is 6.53 nM and the “MKN45 Cell Prolif. 120 hr (Ymin-Obs)” value turned out to be 7.225. On WEE1, the “293T-LentiX WEE1-ePL Degradation 4 hr (Ymin)” value is reported as 40 and the DC50 stood at 6.07 nM.

`O=C1CCC(N2Cc3cc(O[C@H]4CCN(Cc5ccc6nc(N7CCC[C@]78CCOC8)ncc6c5)C4)ccc3C2=O)C(=O)N1` (stereo partly drawn) [3-(5-{[(3S)-1-({2-[(5R)-7-oxa-1-azaspiro[4.4]nonan-1-yl]quinazolin-6-yl}methyl)pyrrolidin-3-yl]oxy}-1-oxo-2,3-dihydro-1H-isoindol-2-yl)piperidine-2,6-dione]: in the test with MKN45 cells, the EC50 stood at 6.61 nM and the “MKN45 Cell Prolif. 120 hr (Ymin-Obs)” value worked out at 6.57. In addition, at WEE1, the “293T-LentiX WEE1-ePL Degradation 4 hr (Ymin)” value was determined as 32.5 and the DC50 came to 12.3 nM.

`O=C1CCC(N2Cc3cc(O[C@H]4CCN(Cc5ccc6nc(N7CCC[C@]78CCOC8)ccc6c5)C4)ccc3C2=O)C(=O)N1` (stereo partly drawn) [3-(5-{[(3S)-1-({2-[(5R)-7-oxa-1-azaspiro[4.4]nonan-1-yl]quinolin-6-yl}methyl)pyrrolidin-3-yl]oxy}-1-oxo-2,3-dihydro-1H-isoindol-2-yl)piperidine-2,6-dione]: in the test on MKN45 cells, the EC50 was 10.9 nM and the “MKN45 Cell Prolif. 120 hr (Ymin-Obs)” value amounted to 17.85. For the same molecule, at WEE1, the “293T-LentiX WEE1-ePL Degradation 4 hr (Ymin)” value is 46 and the DC50 came to 6.81 nM.

Turning to `O=C1CCC(N2Cc3cc(O[C@H]4CCN(Cc5ccc6nc(N7CCC[C@@]78CCOC8)ncc6c5)C4)ccc3C2=O)C(=O)N1` (stereo partly drawn) [3-(5-{[(3S)-1-({2-[(5S)-7-oxa-1-azaspiro[4.4]nonan-1-yl]quinazolin-6-yl}methyl)pyrrolidin-3-yl]oxy}-1-oxo-2,3-dihydro-1H-isoindol-2-yl)piperidine-2,6-dione], in the test on MKN45 cells, the EC50 is 9.38 nM and the “MKN45 Cell Prolif. 120 hr (Ymin-Obs)” value was found to be 9.64. On WEE1, the “293T-LentiX WEE1-ePL Degradation 4 hr (Ymin)” value stood at 34.08 and the DC50 came out at 12.6 nM.

For the molecule `O=C1CCC(N2Cc3cc(O[C@H]4CCN(Cc5ccc6nc(N7CCC[C@@]78CCOC8)ccc6c5)C4)ccc3C2=O)C(=O)N1` (stereo partly drawn) [3-(5-{[(3S)-1-({2-[(5S)-7-oxa-1-azaspiro[4.4]nonan-1-yl]quinolin-6-yl}methyl)pyrrolidin-3-yl]oxy}-1-oxo-2,3-dihydro-1H-isoindol-2-yl)piperidine-2,6-dione], in the test with MKN45 cells, the concentration for a half-maximal effect (EC50) is 10.1 nM and the “MKN45 Cell Prolif. 120 hr (Ymin-Obs)” value stood at 26.44. Further, on WEE1, the “293T-LentiX WEE1-ePL Degradation 4 hr (Ymin)” value was found to be 47 and the DC50 is 3.66 nM.

On to `O=C1CCC(N2Cc3cc(O[C@H]4CCN(Cc5ccc6nc(NC7CCOCC7)ccc6c5)C4)ccc3C2=O)C(=O)N1` (stereo partly drawn) [3-(5-{[(3S)-1-({2-[(oxan-4-yl)amino]quinolin-6-yl}methyl)pyrrolidin-3-yl]oxy}-1-oxo-2,3-dihydro-1H-isoindol-2-yl)piperidine-2,6-dione], for which, in the test on MKN45 cells, the EC50 is 4.27 nM and the “MKN45 Cell Prolif. 120 hr (Ymin-Obs)” value amounted to 7.78. For the same molecule, on WEE1, the “293T-LentiX WEE1-ePL Degradation 4 hr (Ymin)” value amounted to 37 and the DC50 was 10.6 nM.

Turning to `O=C1CCC(N2Cc3cc(O[C@H]4CCN(Cc5ccc6nc(COC7CCOCC7)ccc6c5)C4)ccc3C2=O)C(=O)N1` (stereo partly drawn) [3-(5-{[(3S)-1-({2-[(oxan-4-yloxy)methyl]quinolin-6-yl}methyl)pyrrolidin-3-yl]oxy}-1-oxo-2,3-dihydro-1H-isoindol-2-yl)piperidine-2,6-dione], in the test on MKN45 cells, the EC50 came to 2.19 nM and the “MKN45 Cell Prolif. 120 hr (Ymin-Obs)” value was 7.295. Besides, at WEE1, the “293T-LentiX WEE1-ePL Degradation 4 hr (Ymin)” value was found to be 33 and the DC50 is 4.73 nM.

As to `O=C1CCC(N2Cc3cc(O[C@H]4CCN(Cc5ccc6nc(COC7COC7)ccc6c5)C4)ccc3C2=O)C(=O)N1` (stereo partly drawn) [3-(5-{[(3S)-1-({2-[(oxetan-3-yloxy)methyl]quinolin-6-yl}methyl)pyrrolidin-3-yl]oxy}-1-oxo-2,3-dihydro-1H-isoindol-2-yl)piperidine-2,6-dione], in the test on MKN45 cells, the EC50 was 5.37 nM and the “MKN45 Cell Prolif. 120 hr (Ymin-Obs)” value was 9.252. In addition, at WEE1, the “293T-LentiX WEE1-ePL Degradation 4 hr (Ymin)” value is on record as 23.84 and the DC50 turned out to be 122 nM.

For `CN(c1ccc2cc(CN3CC[C@H](Oc4ccc5c(c4)CN(C4CCC(=O)NC4=O)C5=O)C3)ccc2n1)C1CCOCC1` (stereo partly drawn) [3-(5-{[(3S)-1-({2-[methyl(oxan-4-yl)amino]quinolin-6-yl}methyl)pyrrolidin-3-yl]oxy}1-oxo-2,3-dihydro-1H-isoindol-2-yl)piperidine-2,6-dione], in the test with MKN45 cells, the EC50 is 3.5 nM and the “MKN45 Cell Prolif. 120 hr (Ymin-Obs)” value was 8.45. On WEE1, the “293T-LentiX WEE1-ePL Degradation 4 hr (Ymin)” value stood at 32 and the DC50 stood at 1.82 nM.

As to `O=C1CCC(N2Cc3cc(O[C@H]4CCN(Cc5cnc6c(c5)CCO6)C4)ccc3C2=O)C(=O)N1` (stereo partly drawn) [3-(5-{[(3S)-1-({2H,3H-furo[2,3-b]pyridin-5-yl}methyl)pyrrolidin-3-yl]oxy}-1-oxo-2,3-dihydro-1H-isoindol-2-yl)piperidine-2,6-dione], in the test on MKN45 cells, the EC50 amounted to 2040 nM and the “MKN45 Cell Prolif. 120 hr (Ymin-Obs)” value is 40.58. For the same molecule, on WEE1, the “293T-LentiX WEE1-ePL Degradation 4 hr (Ymin)” value worked out at 42 and the DC50 was determined as 60.1 nM.

`O=C1CCC(N2Cc3cc(O[C@H]4CCN(Cc5cc6c(cn5)OCC6)C4)ccc3C2=O)C(=O)N1` (stereo partly drawn) [3-(5-{[(3S)-1-({2H,3H-furo[2,3-c]pyridin-5-yl}methyl)pyrrolidin-3-yl]oxy}-1-oxo-2,3-dihydro-1H-isoindol-2-yl)piperidine-2,6-dione]: in the test on MKN45 cells, the EC50 was 751 nM and the “MKN45 Cell Prolif. 120 hr (Ymin-Obs)” value stood at 25.455. In addition, at WEE1, the “293T-LentiX WEE1-ePL Degradation 4 hr (Ymin)” value came out at 34 and the DC50 came to 20.8 nM.

For the molecule `O=C1CCC(N2Cc3cc(O[C@H]4CCN(Cc5cc(-c6cccc(C7=CCOCC7)c6)ccn5)C4)ccc3C2=O)C(=O)N1` (stereo partly drawn) [3-(5-{[(3S)-1-({4-[3-(3,6-dihydro-2H-pyran-4-yl)phenyl]pyridin-2-yl}methyl)pyrrolidin-3-yl]oxy}-1-oxo-2,3-dihydro-1H-isoindol-2-yl)piperidine-2,6-dione], in the test on MKN45 cells, the EC50 was found to be 0.738 nM and the “MKN45 Cell Prolif. 120 hr (Ymin-Obs)” value worked out at 7.53. Besides, on WEE1, the “293T-LentiX WEE1-ePL Degradation 4 hr (Ymin)” value came to 28 and the DC50 was found to be 2 nM.

`O=C1CCC(N2Cc3cc(O[C@H]4CCN(Cc5cc(-c6cccc(N7CCOCC7)c6)ccn5)C4)ccc3C2=O)C(=O)N1` (stereo partly drawn) [3-(5-{[(3S)-1-({4-[3-(morpholin-4-yl)phenyl]pyridin-2-yl}methyl)pyrrolidin-3-yl]oxy}-1-oxo-2,3-dihydro-1H-isoindol-2-yl)piperidine-2,6-dione]: in the test on MKN45 cells, the EC50 was 7.33 nM and the “MKN45 Cell Prolif. 120 hr (Ymin-Obs)” value is reported as 4.54. Further, at WEE1, the “293T-LentiX WEE1-ePL Degradation 4 hr (Ymin)” value was determined as 28 and the DC50 was found to be 2.32 nM.
